Molecules are shown by their SMILES. pIC50: −log10 of the molar value.

For experiment [1], the target named is T1, Telomerase reverse transcriptase (Homo sapiens, UniProt O14746). Briefly: Apparent telomerase inhibition by G-quadruplex mechanism.
The target in experiment [2] is T1, Telomerase reverse transcriptase. Briefly: Apparent telomerase inhibition by primer mechanism.

T1 sequence (O14746 whole entry): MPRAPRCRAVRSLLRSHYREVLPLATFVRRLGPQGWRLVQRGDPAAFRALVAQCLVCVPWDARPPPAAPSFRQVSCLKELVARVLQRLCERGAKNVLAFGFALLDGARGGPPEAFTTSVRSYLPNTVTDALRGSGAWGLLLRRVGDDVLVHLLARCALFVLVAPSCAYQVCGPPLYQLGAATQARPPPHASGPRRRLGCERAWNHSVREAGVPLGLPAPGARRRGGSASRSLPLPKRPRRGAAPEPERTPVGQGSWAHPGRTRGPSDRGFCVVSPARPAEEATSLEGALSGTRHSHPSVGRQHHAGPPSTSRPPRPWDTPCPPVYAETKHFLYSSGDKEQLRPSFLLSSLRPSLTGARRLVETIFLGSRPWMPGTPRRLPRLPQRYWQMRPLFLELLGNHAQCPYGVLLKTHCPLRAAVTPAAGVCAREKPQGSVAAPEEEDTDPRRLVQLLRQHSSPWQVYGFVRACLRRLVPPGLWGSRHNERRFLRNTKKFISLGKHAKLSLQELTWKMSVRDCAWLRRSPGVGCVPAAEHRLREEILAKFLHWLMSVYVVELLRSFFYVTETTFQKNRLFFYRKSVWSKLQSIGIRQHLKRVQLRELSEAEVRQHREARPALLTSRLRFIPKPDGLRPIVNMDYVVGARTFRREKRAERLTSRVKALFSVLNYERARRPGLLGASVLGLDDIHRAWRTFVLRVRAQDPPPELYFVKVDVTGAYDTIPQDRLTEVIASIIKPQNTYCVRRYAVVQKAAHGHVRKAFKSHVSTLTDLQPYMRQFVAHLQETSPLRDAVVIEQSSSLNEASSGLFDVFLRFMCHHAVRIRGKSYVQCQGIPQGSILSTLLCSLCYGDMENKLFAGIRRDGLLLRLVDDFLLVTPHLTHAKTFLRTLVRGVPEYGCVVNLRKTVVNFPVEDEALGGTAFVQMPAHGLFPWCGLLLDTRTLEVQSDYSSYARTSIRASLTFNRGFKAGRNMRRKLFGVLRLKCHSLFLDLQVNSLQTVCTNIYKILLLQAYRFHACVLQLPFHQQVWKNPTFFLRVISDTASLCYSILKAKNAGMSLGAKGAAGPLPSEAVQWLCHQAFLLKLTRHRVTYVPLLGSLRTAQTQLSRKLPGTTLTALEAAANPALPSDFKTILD

For the molecule `C[n+]1ccc(-c2c3nc(c(-c4cc[n+](C)cc4)c4ccc([nH]4)c(-c4cc[n+](C)cc4)c4nc(c(-c5cc[n+](C)cc5)c5ccc2[nH]5)C=C4)C=C3)cc1`, in experiment [1], the pIC50 is 5.10. Consider `C[n+]1cc(-c2ccco2)cc(-c2c3nc(c(-c4cc(-c5ccco5)c[n+](C)c4)c4ccc([nH]4)c(-c4cc(-c5ccco5)c[n+](C)c4)c4ccc([nH]4)c(-c4cc(-c5ccco5)c[n+](C)c4)c4nc2C=C4)C=C3)c1` [5,10,15,20-tetra[5-(2-furfuryl)-N-methyl-3-pyridyl]porphyrin chloride], for which the pIC50 in experiment [2] is 5.10. For `C[n+]1ccc(-c2c3nc(c(-c4cc[n+](C)cc4)c4ccc([nH]4)c(-c4cccc([N+](=O)[O-])c4)c4ccc([nH]4)c(-c4cc[n+](C)cc4)c4nc2C=C4)C=C3)cc1`, the pIC50 in experiment [1] was 4.92.

Consider `CC[n+]1ccc(-c2c3nc(c(-c4cc[n+](CC)cc4)c4ccc([nH]4)c(-c4cc[n+](CC)cc4)c4ccc([nH]4)c(-c4cc[n+](CC)cc4)c4nc2C=C4)C=C3)cc1`, for which, in experiment [1], the pIC50 is 4.60. For the molecule `C[n+]1ccc(-c2c3nc(c(-c4cccc([N+](=O)[O-])c4)c4nc(c(-c5cc[n+](C)cc5)c5ccc([nH]5)c(-c5cccc([N+](=O)[O-])c5)c5ccc2[nH]5)C=C4)C=C3)cc1`, the pIC50 in experiment [1] is 4.60.

Values taken from BindingDB's records for doi:10.1021/jm010246u (University of Texas At Austin, 2001).
